Laboratory results taken from patent US20230016424A1, “HYBRID AMIDE DERIVATIVES OF AMPHOTERICIN B” (The Board of Trustees of the University of Illinois, priority 2019, published 2023).
Values after ≈ are worked out from the molar mass of the structure shown. Values joined by “and” are separate entries in the source; they are usually repeats but may differ in a detail not shown here. Equal entries are not always repeated.

Experiments:
[1] = system: C. albicans SN250, C. albicans, C. krusei, C. glabrata, C. tropicalis, A. fumigatus 91, 1163, 1100; assay: Average MIC over the tested strains; format: cell-based; set-up: Avg. MIC of AmB amide: unit not given here; conditions: for MIC: average over the 8 listed strains; for Avg. MIC of AmB amide: value of the corresponding C16 amide of AmB
A. flavus = assay: MIC against moulds; format: cell-based; conditions: 6 isolates
A. terreus = assay: MIC against moulds; format: cell-based; conditions: 6 isolates
A. thermomutatus = assay: MIC against moulds; format: cell-based; conditions: for MIC A. thermomutatus: 6 isolates
A. tubingensis = assay: MIC against moulds; format: cell-based; conditions: 6 isolates
Mucor circinelloides = assay: MIC against moulds; format: cell-based; conditions: 6 isolates
Fusarium oxysporum = assay: MIC against moulds; format: cell-based; conditions: 6 isolates
Licht. Ramosa = assay: MIC against moulds; format: cell-based; conditions: 6 isolates
Syncephalastrum sp. = assay: MIC against moulds; format: cell-based; conditions: 6 isolates
Claophialophora bantiana = assay: MIC against moulds; format: cell-based; conditions: 6 isolates
Talaromyces marneffei = assay: MIC against moulds; format: cell-based; conditions: 6 isolates
Different Moulds = assay: Average MIC against different moulds; format: cell-based; set-up: MICavg moulds (159 strains): unit not given beside the values; conditions: for MIC: 157 isolates
Candida krusei = assay: MIC against yeasts; format: cell-based; conditions: 2 isolates
Cryptococcus neoformans = assay: MIC against yeasts; format: cell-based; conditions: 10 isolates
Scedosporium boydii = assay: MIC against rare moulds resistant to AmB; format: cell-based; conditions: 6 isolates
Lomentospora prolificans = assay: MIC against rare moulds resistant to AmB; format: cell-based; conditions: 6 isolates
CYP2C9 = CYP2C9 (Homo sapiens, UniProt P11712); assay: CYP Inhibition; conditions: for P450 2C9 % Inhibition: 10 um, human liver microsome
Method: (§1) The working solutions of the test compounds and the standard inhibitors were prepared in DMSO (100× final concentration). 20 ul of substrate solution (5 in 1 cocktail) was added to the wells followed by 2 ul test compound solution was added. 158 ul of human liver microsome (HLM) was added to all the wells of the incubated plate and warmed to 37° C. for 10 mins. 20 ul of NADPH cofactor solution was then added to all the wells of incubated plate and incubated at 37° C. for 10 mins. At the time point the reaction was quenched by adding 400 uL of cold stop solution. The samples were centrifuged at 4000 rpm for 20 mins to precipitate protein. 100 ul supernatant was diluted with 100 ul of ultra pure water and analyzed using LCMS.

CYP2D6 = CYP2D6 (Homo sapiens, UniProt P10635); assay: CYP Inhibition; conditions: for P450 2D6 % Inhibition: 10 um, human liver microsome
Method: as §1

CYP3A4 = CYP3A4 (Homo sapiens, UniProt P08684); assay: CYP Inhibition; conditions: for P450 3A4 % Inhibition: 10 um, human liver microsome
Method: as §1

human erythrocytes = assay: MHC hemolysis assay; format: cell-based
Method: MHC (FIG. 21B): The protocol for the hemolysis assay was adapted from the report of Paquet and coworkers (Chem. Eur. J. 2008, 14, 2465-2481). Whole human blood (sodium heparin) was purchased from Bioreclamation LLC (Westbury, N.Y.) and stored at 4° C. and used within two days of receipt. To a 2.0 mL eppendorf tube, 1 mL of whole human blood was added and centrifuged at 10,000 g for 2 minutes. The supernatant was removed and the erythrocyte pellet was washed with 1 mL of sterile saline and centrifuged at 10,000 g for 2 minutes. The saline wash was repeated for a total of three washes. The erythrocyte pellet was suspended in 1 mL of RBC buffer (10 mM NaH2PO4, 150 mM NaCl, 1 mM MgCl2, pH 7.4) to form the erythrocyte stock suspension.
Compounds were prepared as >15 mM stock solutions in DMSO and serially diluted to the following concentrations with DMSO: 7689, 5126, 2563, 2050, 1538, 1025, 769, 513, 384, 256, 205, 154, 103, 77, 51, 26 μM. To a 0.2 mL PCR tube, 24 μL of RBC buffer and 1 μL of compound stock solution were added, which gave final concentrations of […]. Positive and negative controls were prepared by adding 1 μL of DMSO to MilliQ water or RBC buffer, respectively to 0.2 mL PCR tube. To each PCR tube, 0.63 μL of the erythrocyte stock suspension was added and mixed by inversion. The samples were incubated at 37° C. for 2 hours. The samples were mixed by inversion and centrifuged at 10,000 g for 2 minutes. 15 μL of the supernatant from each sample was added to a 384-well place. Absorbances were read at 540 nm using a Biotek H1 Synergy Hybrid Reader (Wanooski, Vt.). Experiments were performed in triplicate and the reported MHC represents an average of three experiments.

[2] = UV-Vis sterol binding assay
Method: However, an alternative method was developed for reproducible formation of homogenous AmB and C2′epiAmB sterol sponge aggregates in vitro. Using these preparations, a quantitative UV-Vis and Principle Component (PCA) based assay for determining the apparent KDs for the binding of AmB and C2′epiAmB to ergosterol and cholesterol (FIGS. 5A-5D) was developed.
UV-Vis Binding Assay (FIG. 21A): The protocol for the sterol binding assay (UV-Vis) was developed in our lab. Compounds were dissolved in DMSO at a final concentration of 1 mM. Sterol were first dissolved in CHCl3 (>200 mM) and then diluted to 1 mM concentration with DMSO. To synthesize the complex 1 ul of compound solution was taken in a clean eppendorf tube (2 ml) and sterol solution (volume depends on the stoichiometry) was added to it and the volume was made up to 20 ul with DMSO. 0.98 ml of PBS buffer was added to the Eppendorf tube and mixed properly. The absorbance of the solution was measured after 30 mins of incubation.

yeast (5 strains) = assay: MICavg yeast (5 strains); format: cell-based; set-up: unit not given beside the values
[3] = Table 12, C16 amides of C2'epiAmB
[4] = Table 13, C16 amides of C2’epiAmB
[5] = hemolysis, human erythrocytes, 37° C. 2 hours
[6] = human, human liver microsomes, probe 5 in 1 substrate cocktail (substrates not named)

CYP3A4, sequence (P08684 whole entry): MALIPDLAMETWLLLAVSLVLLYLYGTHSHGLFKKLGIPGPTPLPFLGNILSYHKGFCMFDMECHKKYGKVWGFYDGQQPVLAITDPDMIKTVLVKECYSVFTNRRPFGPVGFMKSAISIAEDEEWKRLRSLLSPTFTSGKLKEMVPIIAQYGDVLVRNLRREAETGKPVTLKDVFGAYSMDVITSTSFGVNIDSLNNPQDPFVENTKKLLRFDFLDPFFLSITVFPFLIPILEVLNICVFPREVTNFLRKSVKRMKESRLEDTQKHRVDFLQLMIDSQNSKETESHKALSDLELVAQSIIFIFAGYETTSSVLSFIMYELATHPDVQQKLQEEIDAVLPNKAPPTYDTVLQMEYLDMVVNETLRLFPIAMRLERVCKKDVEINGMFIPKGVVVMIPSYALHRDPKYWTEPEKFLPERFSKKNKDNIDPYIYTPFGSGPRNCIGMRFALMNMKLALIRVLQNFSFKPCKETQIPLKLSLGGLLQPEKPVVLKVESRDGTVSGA
CYP2D6, sequence (P10635 whole entry): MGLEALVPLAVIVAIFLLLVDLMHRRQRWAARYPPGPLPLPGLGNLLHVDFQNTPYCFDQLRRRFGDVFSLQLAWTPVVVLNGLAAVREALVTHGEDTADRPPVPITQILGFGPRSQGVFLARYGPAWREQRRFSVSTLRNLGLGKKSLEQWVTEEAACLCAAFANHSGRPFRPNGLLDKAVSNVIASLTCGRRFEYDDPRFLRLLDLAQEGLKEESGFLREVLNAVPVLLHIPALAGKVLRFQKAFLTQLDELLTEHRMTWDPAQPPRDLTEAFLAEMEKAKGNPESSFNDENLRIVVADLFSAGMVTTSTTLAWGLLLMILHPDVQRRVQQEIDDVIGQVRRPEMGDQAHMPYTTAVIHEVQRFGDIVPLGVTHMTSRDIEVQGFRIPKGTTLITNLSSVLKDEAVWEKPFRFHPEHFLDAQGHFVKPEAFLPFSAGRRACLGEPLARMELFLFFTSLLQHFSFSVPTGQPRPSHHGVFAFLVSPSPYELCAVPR
CYP2C9, sequence (P11712 whole entry): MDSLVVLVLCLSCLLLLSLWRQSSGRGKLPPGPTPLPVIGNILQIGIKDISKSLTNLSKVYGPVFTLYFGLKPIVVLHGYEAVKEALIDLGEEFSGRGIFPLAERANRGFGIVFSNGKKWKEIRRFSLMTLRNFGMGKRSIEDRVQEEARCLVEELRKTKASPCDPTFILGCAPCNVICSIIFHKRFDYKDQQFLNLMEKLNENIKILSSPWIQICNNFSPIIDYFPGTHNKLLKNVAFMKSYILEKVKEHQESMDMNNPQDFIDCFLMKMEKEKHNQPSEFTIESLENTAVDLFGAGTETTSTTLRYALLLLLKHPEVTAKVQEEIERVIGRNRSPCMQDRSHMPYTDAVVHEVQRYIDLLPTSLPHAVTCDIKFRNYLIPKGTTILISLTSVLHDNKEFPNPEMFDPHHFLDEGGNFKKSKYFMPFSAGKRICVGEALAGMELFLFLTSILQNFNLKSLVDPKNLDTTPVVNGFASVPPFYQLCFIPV

Structure (SMILES)	Average MIC [1, 3] [µM]	Average MIC [1, 4] [µM]	MIC [1]	Avg. MIC of AmB amide ([1]; not of the C2’epi compound)	MIC (A. flavus) [µM]	MIC (A. terreus) [µM]	MIC A. thermomutatus (A. thermomutatus) [µM]	MIC (A. tubingensis) [µM]	MIC (Mucor circinelloides) [µM]	MIC (Fusarium oxysporum) [µM]	MIC (Licht. Ramosa) [µM]	MIC (Syncephalastrum sp.) [µM]	MIC (Claophialophora bantiana) [µM]	MIC (Talaromyces marneffei) [µM]	MICavg moulds (159 strains) (Different Moulds)	MIC (Different Moulds) [µM]	MIC (Candida krusei) [µM]	MHC (human erythrocytes; summary table, unit not given)	Binds Cholesterol [2]	MICavg yeast (5 strains) (yeast (5 strains))	further results
CC1C=CC=CC=CC=CC=CC=CC=CC(OC2OC(C)C(O)C(N)C2O)CC2OC(O)(CC(O)CC(O)C(O)CCC(O)CC(O)CC(=O)OC(C)C(C)C1O)CC(O)C2C(=O)NCCO (stereo not shown) [Compound BA]	1.031	1030	0.727 µM	0.18	2.67 (≈ 2.58 µg/mL)	3.33 (≈ 3.22 µg/mL)	1.6 (≈ 1.55 µg/mL)	0.92 (≈ 0.89 µg/mL)	1 (≈ 0.967 µg/mL)	11.3 (≈ 10.9 µg/mL)	1.1 (≈ 1.06 µg/mL)	1 (≈ 0.967 µg/mL)	2 (≈ 1.93 µg/mL)	0.15 (≈ 0.145 µg/mL)	2.3	2.3 (≈ 2.22 µg/mL)	4 (≈ 3.87 µg/mL)	>500	No	0.59	Average MIC for AmB analogue ([1]; value of the corresponding AmB analogue, not of the C2’epi compound): 0.328 μM; MIC (Cryptococcus neoformans): 2 µM (≈ 1.93 µg/mL); MIC (Scedosporium boydii): >16 µM; MIC (Lomentospora prolificans): >16 µM; P450 2C9 % Inhibition (CYP2C9): 18.7%; P450 2D6 % Inhibition (CYP2D6): 2.74% and 2.77%; P450 3A4 % Inhibition (CYP3A4): 15.7%; MHC (human erythrocytes; [5]): >500 µM; Cholesterol Binding [2]: No
CC1C=CC=CC=CC=CC=CC=CC=CC(OC2OC(C)C(O)C(N)C2O)CC2OC(O)(CC(O)CC(O)C(O)CCC(O)CC(O)CC(=O)OC(C)C(C)C1O)CC(O)C2C(=O)NCCF (stereo not shown) [Compound BM]	0.844	840		0.39	2.5 (≈ 2.42 µg/mL)	1.08 (≈ 1.05 µg/mL)	1.7 (≈ 1.65 µg/mL)	0.92 (≈ 0.892 µg/mL)	1 (≈ 0.969 µg/mL)	9.3 (≈ 9.01 µg/mL)	1 (≈ 0.969 µg/mL)	1 (≈ 0.969 µg/mL)	1 (≈ 0.969 µg/mL)	0.2 (≈ 0.194 µg/mL)	2.2	2.3 (≈ 2.23 µg/mL)	2 (≈ 1.94 µg/mL)	>100	No	0.58	MIC (Cryptococcus neoformans): 2 µM (≈ 1.94 µg/mL); MIC (Scedosporium boydii): >16 µM; MIC (Lomentospora prolificans): >16 µM; P450 2C9 % Inhibition (CYP2C9): 89.1%; P450 2D6 % Inhibition (CYP2D6): 2.1%; P450 3A4 % Inhibition (CYP3A4): 12.4%
C[C@@H]1[C@H](O)[C@@H](C)/C=C/C=C/C=C/C=C/C=C/C=C/C=C/[C@H](OC2O[C@H](C)[C@@H](O)[C@H](N)[C@@H]2O)C[C@@H]2O[C@](O)(C[C@@H](O)C[C@@H](O)[C@H](O)CC[C@@H](O)C[C@@H](O)CC(=O)O[C@H]1C)C[C@H](O)[C@H]2C(=O)O (stereo partly shown) [AmB, Amphotericin B]			0.642 µM and 0.44 µM								0.15 (≈ 0.139 µg/mL)		0.375 (≈ 0.347 µg/mL)		0.9	0.9 (≈ 0.832 µg/mL)		8.4	Yes	0.23	MIC (A. flavus; Aspergillus flavus): 1.16 µM (≈ 1.07 µg/mL); MIC (A. terreus; Aspergillus terreus): 3 µM (≈ 2.77 µg/mL); MIC (A. thermomutatus; Aspergillus thermomutatus, read-out: MIC A. thermomutatus): 0.6 µM (≈ 0.554 µg/mL); MIC (A. tubingensis; Aspergillus tubingensis): 0.125 µM (≈ 0.116 µg/mL); MIC (Mucor circinelloides; Mucor circinelloides): 0.125 µM (≈ 0.116 µg/mL); MIC (Fusarium oxysporum; Fusarium oxysporum): 1.5 µM (≈ 1.39 µg/mL); MIC (Syncephalastrum sp.; Syncephalastrum): 0.06 µM (≈ 0.0554 µg/mL); MIC (Talaromyces marneffei; Talaromyces marneffei): 0.09 µM (≈ 0.0832 µg/mL); MIC (Candida krusei; Pichia kudriavzevii): 1 µM (≈ 0.924 µg/mL); MIC (Cryptococcus neoformans; Cryptococcus neoformans): 0.55 µM (≈ 0.508 µg/mL); MIC (Scedosporium boydii; Scedosporium boydii): > 16 µM; MIC (Lomentospora prolificans; Lomentospora prolificans): > 16 µM; inhibition at 10 min, 10 µM (CYP2C9; human, human liver microsomes, probe 5 in 1 substrate cocktail): 4.1%; inhibition at 10 min, 10 µM (CYP2D6; [6]): 2.3%; inhibition at 10 min, 10 µM (CYP3A4; [6]): 8.1%; MHC (human erythrocytes; [5]): 8.4 µM; Cholesterol Binding [2]: Yes
